Test results: US20250026766A1, “Thiazolopyridyl Amide Derivatives as DNA Polymerase Theta Inhibitors” (BeiGene, Ltd., priority 2022, published 2025)

What follows are compounds tested against Pol Theta (1-894) (Homo sapiens (Human), UniProt O75417) (assay: Biochemical Pol Theta (1-894) ATPase IC50 assay (ADP-Glo, ssDNA substrate)). Conditions: ADP-Glo assay with ssDNA substrate, room temperature.
In short: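 His-tagged human Pol Theta 1-894 from Sf9 baculovirus cells, 2× enzyme solution at 12.5 nM, assayed with ssDNA substrate at room temperature in 40 mM Tris pH 7.5, 20 mM MgCl2, 1 mM DTT, 0.01% BSA, 0.05% Tween-20.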

Chain of Pol Theta (1-894) (O75417 1-894): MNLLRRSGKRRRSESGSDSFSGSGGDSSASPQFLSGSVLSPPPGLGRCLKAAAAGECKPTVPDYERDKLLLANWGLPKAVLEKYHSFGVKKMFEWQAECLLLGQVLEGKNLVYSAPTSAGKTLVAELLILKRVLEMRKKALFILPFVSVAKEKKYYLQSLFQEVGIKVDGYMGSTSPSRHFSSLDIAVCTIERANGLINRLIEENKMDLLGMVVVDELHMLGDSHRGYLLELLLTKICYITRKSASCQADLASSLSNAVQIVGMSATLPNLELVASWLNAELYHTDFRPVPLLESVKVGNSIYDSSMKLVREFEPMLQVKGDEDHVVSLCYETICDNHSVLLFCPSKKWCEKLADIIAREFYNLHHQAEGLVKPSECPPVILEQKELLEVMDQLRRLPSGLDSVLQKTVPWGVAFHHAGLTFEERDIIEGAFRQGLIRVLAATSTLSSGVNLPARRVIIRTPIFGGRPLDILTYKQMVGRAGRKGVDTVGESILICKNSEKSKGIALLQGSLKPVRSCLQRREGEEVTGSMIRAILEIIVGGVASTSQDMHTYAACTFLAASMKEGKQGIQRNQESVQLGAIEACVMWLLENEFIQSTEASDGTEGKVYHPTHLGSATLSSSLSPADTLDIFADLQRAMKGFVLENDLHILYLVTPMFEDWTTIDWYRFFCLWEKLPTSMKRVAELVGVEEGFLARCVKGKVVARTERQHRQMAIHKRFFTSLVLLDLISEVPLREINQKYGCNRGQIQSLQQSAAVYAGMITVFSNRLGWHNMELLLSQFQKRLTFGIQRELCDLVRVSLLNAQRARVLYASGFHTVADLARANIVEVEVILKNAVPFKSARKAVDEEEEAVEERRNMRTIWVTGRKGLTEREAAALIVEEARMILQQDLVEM

IC50 [nM]	Compound
23	COc1ccc(C#N)cc1-c1cc(C)ncc1C(=O)Nc1nc2ccc(-c3ccc(N4CCCS4(=O)=O)cc3)nc2s1 [Example 135, 4-(5-cyano-2-methoxyphenyl)-N-(5-(4-(1,1-dioxidoisothiazolidin-2-yl)phenyl)thiazolo[5,4-b]pyridin-2-yl)-6-methylnicotinamide]
14	COc1ccc([N+](=O)[O-])cc1-c1ccncc1C(=O)Nc1nc2ccc(-c3ccc(C#N)cc3)nc2s1 [Example 156, N-(5-(4-cyanophenyl)thiazolo[5,4-b]pyridin-2-yl)-4-(2-methoxy-5-nitrophenyl)nicotinamide]
7.7	COc1ccccc1-c1cnncc1C(=O)Nc1nc2ccc(-c3cc(C)c(NC(C)=O)c(C)c3)nc2s1 [Example 140, N-(5-(4-acetamido-3,5-dimethylphenyl)thiazolo[5,4-b]pyridin-2-yl)-5-(2-methoxyphenyl)pyridazine-4-carboxamide]
19	CCNC(=O)c1ccc(-c2ccc3nc(NC(=O)c4cnncc4-c4ccccc4OC)sc3n2)cc1 [Example 108, N-(5-(4-(ethylcarbamoyl)phenyl)thiazolo[5,4-b]pyridin-2-yl)-5-(2-methoxyphenyl)pyridazine-4-carboxamide]
11	COc1ccccc1-c1cnncc1C(=O)Nc1nc2ccc(-c3ccc(S(C)(=O)=O)cc3F)nc2s1 [Example 133, N-(5-(2-fluoro-4-(methylsulfonyl)phenyl)thiazolo[5,4-b]pyridin-2-yl)-5-(2-methoxyphenyl)pyridazine-4-carboxamide]
5.2	COc1cc(C#N)ccc1-c1ccc2nc(NC(=O)c3cnncc3-c3ccccc3OC)sc2n1 [Example 119, N-(5-(4-cyano-2-methoxyphenyl)thiazolo[5,4-b]pyridin-2-yl)-5-(2-methoxyphenyl)pyridazine-4-carboxamide]
25	COc1ccccc1-c1cnncc1C(=O)Nc1nc2ccc(-c3ccc(Cl)c4c3cnn4C)nc2s1 [Example 125, N-(5-(7-chloro-1-methyl-1H-indazol-4-yl)thiazolo[5,4-b]pyridin-2-yl)-5-(2-methoxyphenyl)pyridazine-4-carboxamide]
5	COc1ccc(C#N)cc1-c1cc(C)ncc1C(=O)Nc1nc2ccc(-c3ccc(C#N)cn3)nc2s1 [Example 159, 4-(5-cyano-2-methoxyphenyl)-N-(5-(5-cyanopyridin-2-yl)thiazolo[5,4-b]pyridin-2-yl)-6-methylnicotinamide]
8.2	COc1ccccc1-c1cnncc1C(=O)Nc1nc2ccc(-c3ccc(C#N)cn3)nc2s1 [Example 158, N-(5-(5-cyanopyridin-2-yl)thiazolo[5,4-b]pyridin-2-yl)-5-(2-methoxyphenyl)pyridazine-4-carboxamide]
11	COc1ccccc1-c1cnncc1C(=O)Nc1nc2ccc(-c3ccc(C#N)nc3)nc2s1 [Example 144, N-(5-(6-cyanopyridin-3-yl)thiazolo[5,4-b]pyridin-2-yl)-5-(2-methoxyphenyl)pyridazine-4-carboxamide]
4.7	COc1ccc(C#N)cc1-c1cc(CO)ncc1C(=O)Nc1nc2ccc(-c3ccc(C#N)cc3)nc2s1 [Example 109, 4-(5-cyano-2-methoxyphenyl)-N-(5-(4-cyanophenyl)thiazolo[5,4-b]pyridin-2-yl)-6-(hydroxymethyl)nicotinamide]
70	Cc1cc(-c2cc(S(C)(=O)=O)ccc2C2CC2)c(C(=O)Nc2nc3ccc(-c4ccc(C#N)cc4)nc3s2)cn1 [Example 157, N-(5-(4-cyanophenyl)thiazolo[5,4-b]pyridin-2-yl)-4-(2-cyclopropyl-5-(methylsulfonyl)phenyl)-6-methylnicotinamide]

Further lines, the compound ahead of its results:

Compound	IC50 [nM]
COc1ccc(C#N)cc1-c1cc(C)ncc1C(=O)Nc1nc2ccc(-c3ccc(C4CC4)cc3)nc2s1 [Example 20, 4-(5-cyano-2-methoxyphenyl)-N-(5-(4-cyclopropylphenyl)thiazolo[5,4-b]pyridin-2-yl)-6-methylnicotinamide]	54
COc1ccc(C#N)cc1-c1cc(C)ncc1C(=O)Nc1nc2ccc(CCc3ccc(Cl)cc3)nc2s1 [Example 107, N-(5-(4-chlorophenethyl)thiazolo[5,4-b]pyridin-2-yl)-4-(5-cyano-2-methoxyphenyl)-6-methylnicotinamide]	17
COc1ccccc1-c1cnncc1C(=O)Nc1nc2ccc(-c3ccc(C(=O)N4CCCC4)cc3)nc2s1 [Example 88, 5-(2-methoxyphenyl)-N-(5-(4-(pyrrolidine-1-carbonyl)phenyl)thiazolo[5,4-b]pyridin-2-yl)pyridazine-4-carboxamide]	50
COc1ccc(C(N)=O)cc1-c1cc(C)ncc1C(=O)Nc1nc2ccc(-c3ccc(NC(C)=O)cc3)nc2s1 [Example 26, N-(5-(4-acetamidophenyl)thiazolo[5,4-b]pyridin-2-yl)-4-(5-carbamoyl-2-methoxyphenyl)-6-methylnicotinamide]	189
Cc1cc(-c2ccccc2C#N)c(C(=O)Nc2nc3ccc(-c4ccc(C#N)cc4)nc3s2)cn1 [Example 53, 4-(2-cyanophenyl)-N-(5-(4-cyanophenyl)thiazolo[5,4-b]pyridin-2-yl)-6-methylnicotinamide]	78
COc1ccc(C#N)cc1-c1nc(C#N)ccc1C(=O)Nc1nc2ccc(-c3ccc(Cl)cc3)nc2s1 [Example 7, N-(5-(4-chlorophenyl)thiazolo[5,4-b]pyridin-2-yl)-6-cyano-2-(5-cyano-2-methoxyphenyl)nicotinamide]	92
N#Cc1ccc(C(=O)Nc2nc3ccc(-c4ccc(Cl)cc4)nc3s2)c(N2CCNC(=O)C2)n1 [Example 13, N-(5-(4-chlorophenyl)thiazolo[5,4-b]pyridin-2-yl)-6-cyano-2-(3-oxopiperazin-1-yl)nicotinamide]	147
COc1ccccc1-c1cnncc1C(=O)Nc1nc2ccc(-c3ccc(Cl)cn3)nc2s1 [Example 55, N-(5-(5-chloropyridin-2-yl)thiazolo[5,4-b]pyridin-2-yl)-5-(2-methoxyphenyl)pyridazine-4-carboxamide]	5
Cc1cc(-c2cc(C#N)ccc2C)c(C(=O)Nc2nc3ccc(-c4ccc(C#N)cc4)nc3s2)cn1 [Example 106, 4-(5-cyano-2-methylphenyl)-N-(5-(4-cyanophenyl)thiazolo[5,4-b]pyridin-2-yl)-6-methylnicotinamide]	26
COc1ccc(C#N)cc1-c1cc(C)ncc1C(=O)Nc1nc2ccc(-c3ccc(Cl)cc3)nc2s1 [Example 8, N-(5-(4-chlorophenyl)thiazolo[5,4-b]pyridin-2-yl)-4-(5-cyano-2-methoxyphenyl)-6-methylnicotinamide]	12
COc1ccc(C#N)cc1-c1cc(C)ncc1C(=O)Nc1nc2ccc(-c3ccc(N4CCCC4=O)c(C)c3)nc2s1 [Example 78, 4-(5-cyano-2-methoxyphenyl)-6-methyl-N-(5-(3-methyl-4-(2-oxopyrrolidin-1-yl)phenyl)thiazolo[5,4-b]pyridin-2-yl)nicotinamide]	7.5
COc1ccccc1-c1cc(C#N)ncc1C(=O)Nc1nc2ccc(-c3ccc(NC(C)=O)cc3)nc2s1 [Example 27, N-(5-(4-acetamidophenyl)thiazolo[5,4-b]pyridin-2-yl)-6-cyano-4-(2-methoxyphenyl)nicotinamide]	67
COc1ccccc1-c1cnccc1C(=O)Nc1nc2ccc(-c3ccc(Cl)cc3)nc2s1 [Example 3, N-(5-(4-chlorophenyl)thiazolo[5,4-b]pyridin-2-yl)-3-(2-methoxyphenyl)isonicotinamide]	145
Cc1cc(-c2cccc3c2OCO3)c(C(=O)Nc2nc3ccc(-c4ccc(C#N)cc4)nc3s2)cn1 [Example 68, 4-(benzo[d][1,3]dioxol-4-yl)-N-(5-(4-cyanophenyl)thiazolo[5,4-b]pyridin-2-yl)-6-methylnicotinamide]	253
COc1ccc(C#N)cc1-c1cc(Cl)ncc1C(=O)Nc1nc2ccc(-c3ccc(C#N)cc3)nc2s1 [Example 33, 6-chloro-4-(5-cyano-2-methoxyphenyl)-N-(5-(4-cyanophenyl)thiazolo[5,4-b]pyridin-2-yl)nicotinamide]	8.5
COc1ccc(C#N)cc1-c1cnccc1C(=O)Nc1nc2ccc(-c3ccc(Cl)cc3)nc2s1 [Example 11, N-(5-(4-chlorophenyl)thiazolo[5,4-b]pyridin-2-yl)-3-(5-cyano-2-methoxyphenyl)isonicotinamide]	57
Cc1cc(-c2cccc3c2OCC(=O)N3)c(C(=O)Nc2nc3ccc(-c4ccc(C#N)cc4)nc3s2)cn1 [Example 70, N-(5-(4-cyanophenyl)thiazolo[5,4-b]pyridin-2-yl)-6-methyl-4-(3-oxo-3,4-dihydro-2H-benzo[b][1,4]oxazin-8-yl)nicotinamide]	193
COc1ccc(C#N)cc1-c1cc(C#N)ncc1C(=O)Nc1nc2ccc(-c3ccc(NC(C)=O)cc3)nc2s1 [Example 36, N-(5-(4-acetamidophenyl)thiazolo[5,4-b]pyridin-2-yl)-6-cyano-4-(5-cyano-2-methoxyphenyl)nicotinamide]	73
CCNC(=O)c1ccc(-c2ccc3nc(NC(=O)c4cnc(C)cc4-c4cc(C#N)ccc4OC)sc3n2)cc1 [Example 73, 4-(5-cyano-2-methoxyphenyl)-N-(5-(4-(ethylcarbamoyl)phenyl)thiazolo[5,4-b]pyridin-2-yl)-6-methylnicotinamide]	15
COc1ccccc1-n1cncc1C(=O)Nc1nc2ccc(-c3ccc(Cl)cc3)nc2s1 [Example 12, N-(5-(4-chlorophenyl)thiazolo[5,4-b]pyridin-2-yl)-1-(2-methoxyphenyl)-1H-imidazole-5-carboxamide]	324
COc1ccccc1-c1cnncc1C(=O)Nc1nc2ccc(-c3ccc(NC(=O)C4CC4)cc3)nc2s1 [Example 71, N-(5-(4-(cyclopropanecarboxamido)phenyl)thiazolo[5,4-b]pyridin-2-yl)-5-(2-methoxyphenyl)pyridazine-4-carboxamide]	83
COc1ccccc1-c1ccncc1C(=O)Nc1nc2ccc(-c3ccc(Cl)cc3)nc2s1 [Example 2, N-(5-(4-chlorophenyl)thiazolo[5,4-b]pyridin-2-yl)-4-(2-methoxyphenyl)nicotinamide]	191
